These results are taken from patent publication US20260108455A1, “DEVICE FOR SUSTAINED CONTROLLED RELEASE OF A […] ACTIVE SUBSTANCE AND USES THEREOF” (Hylomorph AG, priority 2022, published 2026).

Structures can show the parent of a compound that is named as a salt.

A short description of data set [1]: Drug elution testing (in vitro release) of PLGA films. It counts as physicochemical. The conditions noted are these: all prototypes, phase 2. From the text: The main goals are summarized below: • 1. Prepare placebo films with multiple grades of PLGA polymers (Table 1) using solvent casting method. Evaluate both single and dual layer film designs. • 2. […] Create HPLC assay and drug elution method based on provided information. Optimize method for use in formulation development.

Data set [2] can be described thus: Solubility in water (distilled and deionized water). It counts as physicochemical. The note with it: 20 °C, pH 7, water, neutral pH, i.e. pH of 7 at room temperature. As for the experimental part:
Solubility is a chemical property of a molecule in a specific solvent which depends on the chemistry of the two and on the environmental conditions of temperature and pH. […] This at room temperature (20 deg) or body temperature (37 deg) and a pH of 7. Solubility is measured in distilled and deionized water and is given in mg/mL.

Take `CN(C)c1ccc(O)c2c1C[C@H]1C[C@H]3[C@H](N(C)C)C(O)=C(C(N)=O)C(=O)[C@@]3(O)C(O)=C1C2=O` [Minocycline HCl, Minocycline Hydrochloride]: the “degradation during elution testing” value in data set [1] was “Significant degradation”.

The term solubility denotes how much of the substance goes into solution per volume. `CO[C@H]1/C=C/O[C@@]2(C)Oc3c(C)c(O)c4c(O)c(c(/C=N/N5CCN(C)CC5)c(O)c4c3C2=O)NC(=O)/C(C)=C\C=C\[C@H](C)[C@H](O)[C@@H](C)[C@@H](O)[C@@H](C)[C@H](OC(C)=O)[C@@H]1C` [Rifampicin] returned a solubility in data set [2] not above 2500 µg/mL.
